Drawing on PubChem BioAssay AID2060626 (Molecular Pharmacology Branch, DTP, NCI, 2025), this text covers IC50 and viability, T/C for five molecules.

Where “and” joins values, the source holds several entries; their conditions need not be identical. Equal entries are not always repeated. Where only a bound is given, the exact number is not on record here.

In the assay the test system is 168753-222-R-J1-PDC complex spheroid viability. Kind of assay: Anticancer human tumor 168753-222-R-J1-PDC patient-derived bladder carcinoma cell line growth inhibition [CLK]. Particulars: for viability, T/C: stronger effect = lower value. The essentials: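 Patient-derived tumor cells grown as complex spheroids with HUVEC endothelial cells and mesenchymal stem cells, treated with drug combinations. Concentrations descend in half-log steps from near clinical Cmax, or from 10 microM if Cmax unknown.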

The mark [1] stands for this setting: curve of first compound, second compound 0.0316 µM.
Where [2] appears, read: curve of first compound, second compound 0.1 µM.
The mark [3] stands for this setting: curve of first compound, second compound 0.316 µM.
Where [4] appears, read: curve of first compound, second compound 1 µM.
[5] abbreviates: curve of first compound, second compound 3.16 µM.
Where [6] appears, read: curve of first compound, second compound 10 µM.
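Further: viability measured after seven days of drug exposure.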
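Wherever viability, T/C is given: luminescence signal used as surrogate for viable cell amount; 100% = DMSO vehicle control wells.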

Usually IC50 stands for the concentration that gives 50% inhibition. As usually defined, the viability, T/C is the ratio of treated to control. As to `CC1COCCN1c1cc(C2(S(C)(=N)=O)CC2)nc(-c2ccnc3[nH]ccc23)n1` (stereo not drawn) + CNC(=O)c1ccc(Nc2nc(OC3CCCC3)c3c(-c4ccc5nc(C)oc5c4)c[nH]c3n2)c(OC)c1, the IC50 by setting is: under setting [1], greater than 10000 nM; under setting [2], 8260 nM; under setting [3], 2960 nM; under setting [4], less than 31.6 nM; under setting [5], less than 31.6 nM; under setting [6], less than 31.6 nM. Further, the viability, T/C was 111% (second compound 0.0316 µM, first compound 0.0316 µM); 110% (second compound 0.0316 µM, first compound 0.1 µM); 102% (second compound 0.0316 µM, first compound 0.316 µM); 103% (second compound 0.0316 µM, first compound 1 µM); 90.8% (second compound 0.0316 µM, first compound 3.16 µM); 52.4% (second compound 0.0316 µM, first compound 10 µM). Further, the viability, T/C reads like this: (second compound 0.1 µM, first compound 0.0316 µM) 101%; (second compound 0.1 µM, first compound 0.1 µM) 102%; (second compound 0.1 µM, first compound 0.316 µM) 104%; (second compound 0.1 µM, first compound 1 µM) 108%; (second compound 0.1 µM, first compound 3.16 µM) 73.8%; (second compound 0.1 µM, first compound 10 µM) 45.3%. Further, the viability, T/C is 79.8% (second compound 0.316 µM, first compound 0.0316 µM); 72.2% (second compound 0.316 µM, first compound 0.1 µM); 74.5% (second compound 0.316 µM, first compound 0.316 µM); 58.2% (second compound 0.316 µM, first compound 1 µM); 51.3% (second compound 0.316 µM, first compound 3.16 µM); 30.9% (second compound 0.316 µM, first compound 10 µM). For the same molecule, the viability, T/C was 47.8% (second compound 1 µM, first compound 0.0316 µM); 44.8% (second compound 1 µM, first compound 0.1 µM); 38.5% (second compound 1 µM, first compound 0.316 µM); 37.3% (second compound 1 µM, first compound 1 µM); 24.8% (second compound 1 µM, first compound 3.16 µM); 18.1% (second compound 1 µM, first compound 10 µM). The viability, T/C was 31.5% (second compound 3.16 µM, first compound 0.0316 µM); 20.9% (second compound 3.16 µM, first compound 0.1 µM); 19.4% (second compound 3.16 µM, first compound 0.316 µM); 18.8% (second compound 3.16 µM, first compound 1 µM); 17.2% (second compound 3.16 µM, first compound 3.16 µM); 14.2% (second compound 3.16 µM, first compound 10 µM). For the same molecule, the viability, T/C is 19.6% (second compound 10 µM, first compound 0.0316 µM); 23% (second compound 10 µM, first compound 0.1 µM); 20.6% (second compound 10 µM, first compound 0.316 µM); 16.1% (second compound 10 µM, first compound 1 µM); 15.3% (second compound 10 µM, first compound 3.16 µM); 9.89% (second compound 10 µM, first compound 10 µM).
Turning to `C=CC(=O)Nc1cc(Nc2nccc(-c3cn(C)c4ccccc34)n2)c(OC)cc1N(C)CCN(C)C` + CNC(=O)c1ccc(Nc2nc(OC3CCCC3)c3c(-c4ccc5nc(C)oc5c4)c[nH]c3n2)c(OC)c1, the IC50 was greater than 300 nM under setting [1]; greater than 300 nM under setting [2]; greater than 300 nM under setting [3]; less than 0.949 nM under setting [4]; less than 0.949 nM under setting [5]; less than 0.949 nM under setting [6]. Moreover, the viability, T/C is 122% (second compound 0.0316 µM, first compound 0.000949 µM); 96.3% (second compound 0.0316 µM, first compound 0.003 µM); 102% (second compound 0.0316 µM, first compound 0.00949 µM); 102% (second compound 0.0316 µM, first compound 0.03 µM); 107% (second compound 0.0316 µM, first compound 0.0949 µM); 103% (second compound 0.0316 µM, first compound 0.3 µM). The viability, T/C is 91.1% (second compound 0.1 µM, first compound 0.000949 µM); 87% (second compound 0.1 µM, first compound 0.003 µM); 86.7% (second compound 0.1 µM, first compound 0.00949 µM); 76.8% (second compound 0.1 µM, first compound 0.03 µM); 91.7% (second compound 0.1 µM, first compound 0.0949 µM); 90.2% (second compound 0.1 µM, first compound 0.3 µM). For the same molecule, the viability, T/C reads like this: (second compound 0.316 µM, first compound 0.000949 µM) 73.5%; (second compound 0.316 µM, first compound 0.003 µM) 69.6%; (second compound 0.316 µM, first compound 0.00949 µM) 69.3%; (second compound 0.316 µM, first compound 0.03 µM) 63.8%; (second compound 0.316 µM, first compound 0.0949 µM) 71.8%; (second compound 0.316 µM, first compound 0.3 µM) 62.5%. The viability, T/C reads like this: (second compound 1 µM, first compound 0.000949 µM) 37.1%; (second compound 1 µM, first compound 0.003 µM) 39.1%; (second compound 1 µM, first compound 0.00949 µM) 38.5%; (second compound 1 µM, first compound 0.03 µM) 40.8%; (second compound 1 µM, first compound 0.0949 µM) 30.8%; (second compound 1 µM, first compound 0.3 µM) 29%. The viability, T/C was 18.2% (second compound 3.16 µM, first compound 0.000949 µM); 19.3% (second compound 3.16 µM, first compound 0.003 µM); 19.5% (second compound 3.16 µM, first compound 0.00949 µM); 22.8% (second compound 3.16 µM, first compound 0.03 µM); 19.6% (second compound 3.16 µM, first compound 0.0949 µM); 16.9% (second compound 3.16 µM, first compound 0.3 µM). The viability, T/C was 16.3% (second compound 10 µM, first compound 0.000949 µM); 19.8% (second compound 10 µM, first compound 0.003 µM); 18.5% (second compound 10 µM, first compound 0.00949 µM); 15.6% (second compound 10 µM, first compound 0.03 µM); 19.1% (second compound 10 µM, first compound 0.0949 µM); 15.6% (second compound 10 µM, first compound 0.3 µM).
Turning to `O=c1[nH]cc(F)c(=O)[nH]1`, the viability, T/C was 93.5% and 101% (compound 0.0316 µM); 102% and 107% (compound 0.1 µM); 88% and 104% (compound 0.316 µM); 109% and 112% (compound 1 µM); 67.9% and 113% (compound 3.16 µM); 53.5% and 93.2% (compound 10 µM). Besides, the IC50 (curve of compound) is greater than 10000 nM.
With `CN1CCN(c2cc(C(=O)Nc3cc4cc(-c5cnn(C)c5)ccc4cn3)ccn2)CC1`, the viability, T/C by setting is: (compound 0.316 µM) 10.2% [middle of 12 runs]; (compound 1 µM) 1.32% [middle of 11 runs]; (compound 3.16 µM) 0.5% [middle of 11 runs]; (compound 10 µM) 0.32% [middle of 10 runs]. Also, for the setting “compound alone, run of 07/31/2023”, the IC50 is 102 nM [middle of 12 runs].
Turning to `COc1c(OCCCN2CCOCC2)ccc2c3n(c(=NC(=O)c4cnc(N)nc4)nc12)CCN3`, the viability, T/C is, setting by setting: (compound 0.00316 µM) 59.7% and 74.2%; (compound 0.01 µM) 44.1% and 48.3%; (compound 0.0316 µM) 10.2% and 17%; (compound 0.1 µM) 13.6% and 15.3%; (compound 0.316 µM) 7.59% and 8.3%; (compound 1 µM) 2.26% and 3.63%. The IC50 (curve of compound) is 6.47 nM and 8.95 nM.
